Data set [1] is described as follows: logP determination by HPLC (EEC Directive 79/831 Annex V.A8), reversed-phase column C 18. It counts as physicochemical. The method, then:
The logP values given in Table 1 were determined in accordance with EEC Directive 79/831 Annex V.A8 by HPLC (High Performance Liquid Chromatography) using a reversed-phase column (C 18). Temperature: 43° C.
(a) Mobile phases for the determination in the acidic range: 0.1% aqeuous phosphoric acid, acetonitrile; linear gradient from 10% acetonitrile to 90% acetonitrile—the corresponding test results in Table 1 are labelled^a).
(b) Mobile phases for the determination in the neutral range: 0.01 molar aqueous phosphate buffer solution, acetonitrile; linear gradient from 10% acetonitrile to 90% acetonitrile—the corresponding test results in Table 1 are labelled^b).
Calibration was carried out using unbranched alkan-2-ones (having 3 to 16 carbon atoms) with known logP values (determination of the logP values by the retention times using linear interpolation between two successive alkanones).

The mark [2] stands for this setting: reversed-phase HPLC column (C 18); a) acidic range: 0.1% aqueous phosphoric acid/acetonitrile gradient, 43° C.

On to `N#Cc1cc(F)c(-n2c(=O)cc(C(F)(F)F)[nH]c2=O)cc1Oc1cccc2c(O)cccc12`, for which the melting point (usually the temperature of the solid-liquid transition) was found to be 168 °C.

In turn, `COc1cccc2c(Oc3cc(-n4c(=O)cc(C(F)(F)F)n(C)c4=O)c(F)cc3C#N)cccc12` had a melting point of 109 °C.

Consider `N#Cc1cc(F)c(-n2c(=O)cc(C(F)(F)F)[nH]c2=O)cc1Oc1ccc2ccccc2c1`, for which the melting point is 92 °C.

With `Cn1c(C(F)(F)F)cc(=O)n(-c2cc(Oc3ccc4cc(O)ccc4c3)c(C#N)cc2F)c1=O`, the melting point is 174 °C.

As to `CCOC(=O)C(C)Oc1ccc2ccc(Oc3cc(-n4c(=O)cc(C(F)(F)F)n(C)c4=O)c(F)cc3C#N)cc2c1` (racemic), the melting point was determined as 133 °C.

For the compound `CCOC(=O)[C@@H](C)Oc1ccc2cc(Oc3cc(-n4c(=O)cc(C(F)(F)F)n(C)c4=O)c(F)cc3C#N)ccc2c1` [Example 6, ethyl (R)-2-[6-(2-cyano-4-fluoro-5-[3-methyl-2,6-dioxo-4-trifluoromethyl-3,6-dihydro-1(2H)-pyrimidinyl]-phenoxy)-2-naphthyl-oxy]-propanoate], the chromatographic logP (in general, a lipophilicity value derived from retention on a column) in data set [1] (reversed-phase HPLC column (C 18), at pH 2.3) is 3.99.

In data set [1] (setting [2]), `COc1ccc2cc(Oc3cc(-n4c(=O)cc(C(=O)O)[nH]c4=O)c(F)cc3C#N)ccc2c1` [Example 31, 1-[4-cyano-2-fluoro-5-(6-methoxy-naphthalen-2-yl-oxy)-phenyl]-2,6-dioxo-1,2,3,6-tetrahydro-pyrimidine-4-carboxylic acid] had a chromatographic logP of 2.11.

Turning to `COC(=O)c1cc(=O)n(-c2cc(Oc3ccc4cc(OC)ccc4c3)c(C#N)cc2F)c(=O)n1C` [Example 33, methyl I-[4-cyano-2-fluoro-5-(6-methoxy-naphthalen-2-yl-oxy)-phenyl]-2,6-dioxo-3-methyl-1,2,3,6-tetrahydro-pyrimidine-4-carboxylate], the chromatographic logP in data set [1] (setting [2]) is 3.22.

Take `COc1ccc2cc(Oc3cc(-n4c(=O)cc(C(N)=O)n(C)c4=O)c(F)cc3C#N)ccc2c1` [Example 35, 1-[4-cyano-2-fluoro-5-(6-methoxy-naphthalen-2-yl-oxy)-phenyl]-2,6-dioxo-3-methyl-1,2,3,6-tetrahydro-pyrimidine4-carboxamide]: the chromatographic logP in data set [1] (setting [2]) came to 2.06.

Regarding `CCOC(=O)NC1=CC(=O)N(c2cc(Oc3ccc4cc(OC)ccc4c3)c(C#N)cc2F)C1=O` [Example (VII-1), ethyl [1-(4-cyano-2-fluoro-5-(6-methoxy-naphthalen-2-yl-oxy)-phenyl)-2,5-dioxo-2,5-dihydro-1H-pyrrol-3-yl]-carbamate], the chromatographic logP in data set [1] (mobile-phase label not given) stood at 3.63.

For the origin of these results see US6624120B1, “Substituted herbicidal phenyluracils” (priority 1999, dated 2003).
